Data taken from the NIST ThermoML archive (doi:10.1021/je049582g).

Assay: cn = amount concentration of the nth substance listed, in mol/dm3
Conditions: 298 K, 101 kPa, Liquid, holographic interferometric technique

NC(N)=O [urea] + O
Conditions | binary diffusion coefficient [m2/s]
c1 = 0.125 | 1.37e-09
c1 = 0.2475 | 1.36e-09
c1 = 0.5 | 1.34e-09
c1 = 0.75 | 1.33e-09
c1 = 0.9782 | 1.31e-09
c1 = 1 | 1.31e-09
c1 = 1.5 | 1.27e-09
c1 = 2 | 1.24e-09
c1 = 3 | 1.19e-09
c1 = 4 | 1.14e-09

CC[C@@H](N)C(=O)O [(R)-(-)-α-aminobutyric acid] + O
Conditions | binary diffusion coefficient [m2/s]
c1 = 0.2 | 8e-10
c1 = 0.4 | 7.72e-10
c1 = 0.6 | 7.45e-10
c1 = 0.8 | 7.2e-10
c1 = 1 | 6.97e-10

C[C@@H](O)[C@H](N)C(=O)O [L-threonine] + O
Conditions | binary diffusion coefficient [m2/s]
c1 = 0.1006 | 7.86e-10
c1 = 0.2002 | 7.58e-10
c1 = 0.2994 | 7.42e-10
c1 = 0.4002 | 7.25e-10
c1 = 0.5003 | 7.15e-10

[Cl-].[K+] [potassium chloride] + O
Conditions | binary diffusion coefficient [m2/s]
c1 = 0.33 | 1.83e-10

CC[C@H](C)[C@H](N)C(=O)O [2-amino-3-methylpentanoic acid] + O
Conditions | binary diffusion coefficient [m2/s]
c1 = 0.0101 | 7.61e-10
c1 = 0.0203 | 7.5e-10
c1 = 0.0301 | 7.39e-10
c1 = 0.0399 | 7.32e-10
c1 = 0.05 | 7.25e-10

C[C@H](N)C(=O)O [(S)-2-aminopropanoic acid] + O
Conditions | binary diffusion coefficient [m2/s]
c1 = 0.0997 | 9.04e-10
c1 = 0.2996 | 8.59e-10
c1 = 0.4996 | 8.34e-10
c1 = 0.7002 | 8.12e-10
c1 = 0.9006 | 7.92e-10

NCCC(=O)O [3-aminopropanoic acid] + O
Conditions | binary diffusion coefficient [m2/s]
c1 = 0.0281 | 9.36e-10
c1 = 0.0288 | 9.35e-10
c1 = 0.0299 | 9.34e-10
c1 = 0.0344 | 9.33e-10
c1 = 0.111 | 9.18e-10
c1 = 0.5605 | 8.67e-10
c1 = 0.5886 | 8.68e-10
c1 = 1.123 | 8.18e-10
c1 = 1.766 | 7.79e-10
c1 = 2.34 | 7.52e-10
c1 = 2.665 | 7.4e-10
c1 = 3.008 | 7.2e-10
c1 = 3.931 | 6.63e-10
c1 = 4.543 | 6.25e-10
c1 = 5.419 | 5.6e-10

N=C(N)NCCC[C@H](N)C(=O)O [L-arginine] + O
Conditions | binary diffusion coefficient [m2/s]
c1 = 0.1002 | 7.01e-10
c1 = 0.2 | 6.61e-10
c1 = 0.2949 | 6.36e-10
c1 = 0.4001 | 6.21e-10
c1 = 0.5 | 6.04e-10

NCC(=O)O [2-aminoacetic acid] + O
Conditions | binary diffusion coefficient [m2/s]
c1 = 0.1057 | 1.04e-09
c1 = 0.3056 | 1e-09
c1 = 0.5045 | 9.73e-10
c1 = 0.7064 | 9.57e-10
c1 = 0.9045 | 9.43e-10

N[C@@H](CO)C(=O)O [L-serine] + O
Conditions | binary diffusion coefficient [m2/s]
c1 = 0.01 | 9.16e-10
c1 = 0.0301 | 8.91e-10
c1 = 0.05 | 8.79e-10
c1 = 0.07 | 8.71e-10
c1 = 0.0902 | 8.65e-10

OC[C@H]1O[C@@](CO)(O[C@H]2O[C@H](CO)[C@@H](O)[C@H](O)[C@H]2O)[C@@H](O)[C@@H]1O [D-sucrose] + O
Conditions | binary diffusion coefficient [m2/s]
c1 = 0.1 | 4.89e-10
c1 = 0.3 | 4.27e-10
c1 = 0.5 | 3.67e-10
c1 = 0.7 | 3.06e-10

CC(C)[C@H](N)C(=O)O [L-valine] + O
Conditions | binary diffusion coefficient [m2/s]
c1 = 0.1 | 7.12e-10
c1 = 0.2 | 6.79e-10
c1 = 0.2999 | 6.55e-10
c1 = 0.4 | 6.45e-10
c1 = 0.5001 | 6.33e-10

CC(N)C(=O)O (stereo not drawn) [DL-2-aminopropanoic acid] + O
Conditions | binary diffusion coefficient [m2/s]
c1 = 0.0271 | 9.11e-10
c1 = 0.0281 | 9.11e-10
c1 = 0.2233 | 8.84e-10
c1 = 0.4374 | 8.56e-10
c1 = 0.6786 | 8.27e-10
c1 = 0.9025 | 8.02e-10
c1 = 1.195 | 7.72e-10
c1 = 1.541 | 7.41e-10
